pIC50: −log10 of the molar value.

Assay [1] addresses T1, recombinant human CLK3 (Homo sapiens, UniProt P49761).
T1 construct: purchased Thermo Fisher Scientific PV3826
The assay is described as follows: CLK3 kinase assay (LANCE Ultra). Format: biochemical. The settings on record: CLK3 0.5 nM, ATP 300 μM, 3 hours at 30° C. How it is done: CLK3 kinase activity was measured using the LANCE® Ultra technology (PerkinElmer) essentially as recommended by the supplier. Briefly, 2.5 μL of test sample at 4× the desired final concentration in 4% DMSO were dispensed into white, low volume, round bottom, 384 well plates (Corning, cat. no. 4512). 5 μL of a mixture containing recombinant human CLK3 (Thermo Fisher Scientific, cat. no. PV3826) and the labeled peptide substrate ULight™-CREBtide (PerkinElmer, cat. no. TRF0107) prepared in 1.33× kinase buffer (Thermo Fisher Scientific, cat. no. PV3189) were then added. Finally, the reactions were started by adding 2.5 μL of a 4× solution of ATP in kinase buffer. The plates were sealed with adhesive foils and incubated for 3 hours at 30° C. in the dark. The final concentrations of CLK3, ULight™-CREBtide, and ATP were 0.5 nM, 50 nM, and 300 μM, respectively. 5 μL of 40 mM EDTA were then added to terminate the reactions. The Eu-anti-phospho-CREB antibody (PerkinElmer, cat. no. TRF0200) diluted in LANCE® detection buffer (PerkinElmer, cat. no. CR97) was then added to a final concentration of 2 nM and the reactions were incubated for 1 hour at room temperature in the dark. The signals were measured using a Synergy 4 reader (BioTek) with a 320/80 nm filter for the excitation and 620/10 nm and 665/8 nm filters for the donor and acceptor emission, respectively. Relative inhibition values were calculated by normalizing the raw data using solvent control wells (0% inhibition) and wells that received no ATP (100% inhibition). IC50 values were calculated by fitting the concentration-response data to a sigmoidal 4-parameter logistic model. IC50 values for CLK3 are determined from duplicate measurements at ten different concentrations (serial 1:3 dilutions).

Assay [2] has as its system MDA-MB-231 cells. In words: MDA-MB-231 proliferation assay. Format: cell-based. The settings on record: Homo sapiens, MDA-MB-231, 72 h, YO-PRO-1 Iodide readout. The text has this:
(§1) MDA-MB-231 and CAL-51 Proliferation Assay
(§2) Cells (MDA-MB-231 (American Type Culture Collection (ATCC), #HTB-26) or CAL-51 (Deutsche Sammlung von Mikroorganismen und Zellkulturen (DSMZ), #ACC302) as applicable) were cultivated in DMEM High Glucose (4.5 g/L) with L-Glutamine (BioConcept, cat. no. 1-26F03-I) supplemented with 1% Na-pyruvate (Sigma, cat. no. S8636), 1% Penicillin-Streptomycin (BioConcept, cat. no. 4-01F00H), and 10% FBS (Sigma, cat. no. F9665) using standard techniques. Cells were seeded in black, clear-bottom 384 well plates for tissue culture (Greiner Bio-One, cat. no. 781091) at a density of 750 cells per well in 20 μL medium and the plates were incubated overnight at 37° C. with 5% CO2 prior to treatment. Experimental compounds were serially diluted in DMSO to 200× the desired final concentrations. The solutions were then diluted 1:40 with culture medium and 5 μL aliquots were mixed into the wells containing the cells. The final concentration of DMSO was 0.5%. The plates were incubated for 72 hours and cell numbers were then measured using YO-PRO™-1 Iodide (ThermoFisher Scientific, cat. no. Y3603) essentially as recommended by the manufacturer. Briefly, a 12.5 μM solution of YO-PRO™_1 Iodide in 5× YO—PRO buffer (100 mM Na-citrate, 130 mM NaCl, pH 4) was combined with an equal volume of lysis buffer (0.6% NP-40, 30 mM EDTA, 30 mM EGTA, 0.33× YO—PRO buffer) and 12.5 μL of the mixture were dispensed into each well. The plates were incubated at room temperature in the dark for 30 minutes. Fluorescence intensity signals were then measured on a Synergy 4 reader (BioTek) using 485/20 nm and 530/25 nm filters for the excitation and emission, respectively. Relative proliferation values were calculated by normalizing the raw data using DMSO-treated cells (100% proliferation) and the signals obtained from cells that were evaluated at the time of compound addition (0% proliferation). The concentration-response data were fitted to a sigmoidal 4-parameter logistic model with the maximum constrained to 100%. GI50 values were calculated from the curves as the compound concentrations reducing proliferation to 50%.

In assay [3] the test system is CAL-51 cells. In words: CAL-51 proliferation assay. Format: cell-based. The settings on record: Homo sapiens, CAL-51, 72 h, YO-PRO-1 Iodide readout.
Source text: as §1, §2

T1 sequence (P49761 whole entry): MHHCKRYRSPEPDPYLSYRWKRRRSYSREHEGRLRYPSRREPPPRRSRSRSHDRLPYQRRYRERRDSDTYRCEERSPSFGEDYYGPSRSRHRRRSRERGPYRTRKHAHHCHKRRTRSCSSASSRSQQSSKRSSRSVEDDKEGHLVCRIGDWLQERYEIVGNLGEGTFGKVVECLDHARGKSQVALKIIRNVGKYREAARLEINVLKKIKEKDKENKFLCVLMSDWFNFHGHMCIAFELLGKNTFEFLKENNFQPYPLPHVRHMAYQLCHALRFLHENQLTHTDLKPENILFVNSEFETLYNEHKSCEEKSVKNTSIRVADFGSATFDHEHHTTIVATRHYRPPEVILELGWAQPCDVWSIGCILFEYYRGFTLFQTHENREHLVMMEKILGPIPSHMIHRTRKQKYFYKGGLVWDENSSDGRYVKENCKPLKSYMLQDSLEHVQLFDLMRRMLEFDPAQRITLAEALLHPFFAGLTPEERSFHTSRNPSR

As for `Nc1ncnc2c1C1(CCCC1)Cc1c-2ccc(O[C@H]2CC[C@@H](N)CC2)c1NCC(=O)O` [Example 79, 2-[[4-amino-8-(cis-4-aminocyclohexoxy)spiro[6H-benzo[h]quinazoline-5,1′-cyclopentane]-7-yl]amino]acetic acid], in assay [1], the pIC50 was 7.00 to 7.52. Further, the GI50 in assay [2] and in assay [3] was more than 2000 nM throughout.

As for `CN(CC#N)C(=O)c1c(O[C@H]2CC[C@H](N)CC2)ccc2c1CC(C)(C)c1c(N)ncnc1-2` [Example 94, 4-amino-8-(trans-4-aminocyclohexoxy)-N-(cyanomethyl)-N,5,5-trimethyl-6H-benzo[h]quinazoline-7-carboxamide], the pIC50 in assay [1] is 6.00 to 7.00. Further, the GI50 in assay [2] is more than 2000 nM; in assay [3] it was 100 to 2000 nM.

`CN(CC(C)(C)CO)c1c(O[C@H]2CC[C@H](N)CC2)ccc2c1CC(C)(C)c1c(N)ncnc1-2` [Example 110, 3-[[4-amino-8-(trans-4-aminocyclohexoxy)-5,5-dimethyl-6H-benzo[h]quinazolin-7-yl]-methyl-amino]-2,2-dimethyl-propan-1-ol]: the pIC50 in assay [1] was more than 7.52. The GI50 in assay [2] was 100 to 2000 nM; in assay [3], less than 100 nM.

Regarding `COCCNc1c(O[C@H]2CC[C@H](N)CC2)ccc2c1CC1(CCCC1)c1c(N)ncnc1-2` [Example 62, 8-(trans-4-aminocyclohexoxy)-N7-(2-methoxyethyl)spiro[6H-benzo[h]quinazoline-5,1′-cyclopentane]-4,7-diamine], in assay [1], the pIC50 is 6.00 to 7.00. Also, the GI50 in assay [2] and in assay [3] was 100 to 2000 nM throughout.

For `CC1(C)Cc2c(ccc(O[C@H]3CC[C@H](N)CC3)c2NC[C@@H]2CNC(=O)O2)-c2ncnc(N)c21` [Example 129, (5R)-5-[[[4-amino-8-(trans-4-aminocyclohexoxy)-5,5-dimethyl-6H-benzo[h]quinazolin-7-yl]amino]methyl]oxazolidin-2-one], the negative logarithm of the IC50 (pIC50) in assay [1] is more than 7.52. The concentration for 50% growth inhibition (GI50) in assay [2] and in assay [3] was more than 2000 nM in each case.

As for `CN(CCC(F)(F)F)c1c(O[C@H]2CC[C@H](N)CC2)ccc2c1CC(C)(C)c1c(N)ncnc1-2` [Example 43, 8-(trans-4-aminocyclohexoxy)-N7,5,5-trimethyl-N7-(3,3,3-trifluoropropyl)-6H-benzo[h]quinazoline-4,7-diamine], the pIC50 in assay [1] was 7.00 to 7.52. For the same molecule, the concentration for 50% growth inhibition (GI50) in assay [2] and in assay [3] was 100 to 2000 nM in each case.

Regarding `COc1ccc2c(c1NCc1nnc(C(C)F)o1)CC(C)(C)c1c(N)ncnc1-2` (stereo not drawn) [Example 122, N7-[[5-(1-fluoroethyl)-1,3,4-oxadiazol-2-yl]methyl]-8-methoxy-5,5-dimethyl-6H-benzo[h]quinazoline-4,7-diamine], in assay [1], the pIC50 is 6.00 to 7.00. The 50% growth inhibitory concentration (GI50) in assay [2] is more than 2000 nM; in assay [3] it was 100 to 2000 nM.

On to `COc1ccc2c(c1C)CC(C)(C)c1c(N)ncnc1-2` [Example 1, 8-methoxy-5,5,7-trimethyl-6H-benzo[h]quinazolin-4-amine], for which the pIC50 in assay [1] was more than 7.52. The GI50 in assay [2] was more than 2000 nM; in assay [3] it was 100 to 2000 nM.

On to `CC1(C)Cc2c(ccc(O[C@H]3CC[C@H](N)CC3)c2N(CCC#N)C2CC2)-c2ncnc(N)c21` [Example 51, 3-[[4-amino-8-(trans-4-aminocyclohexoxy)-5,5-dimethyl-6H-benzo[h]quinazolin-7-yl]-cyclopropyl-amino]propanenitrile], for which, in assay [1], the pIC50 was more than 7.52. In addition, the GI50 in assay [2] and in assay [3] was less than 100 nM in each case.

Turning to `CN(CCO)c1c(O[C@H]2CC[C@@H](N)CC2)ccc2c1CC(C)(C)c1c(N)ncnc1-2` [Example 24, 2-[[4-amino-8-(cis-4-aminocyclohexoxy)-5,5-dimethyl-6H-benzo[h]quinazolin-7-yl]-methyl-amino]ethanol], in assay [1], the pIC50 was more than 7.52. Further, the GI50 in assay [2] and in assay [3] was less than 100 nM throughout.

For the molecule `CCOCCN(C)c1c(O[C@H]2CC[C@H](N)CC2)ccc2c1CC(C)(C)c1c(N)ncnc1-2` [Example 36, 8-(trans-4-aminocyclohexoxy)-N7-(2-ethoxyethyl)-N7,5,5-trimethyl-6H-benzo[h]quinazoline-4,7-diamine], the pIC50 in assay [1] was 6.00 to 7.00. The GI50 in assay [2] and in assay [3] was 100 to 2000 nM in each case.

Consider `CC1(C)Cc2c(ccc(O[C@H]3CC[C@H](N)CC3)c2NCC2(C#N)CC2)-c2ncnc(N)c21` [Example 76, 1-[[[4-amino-8-(trans-4-aminocyclohexoxy)-5,5-dimethyl-6H-benzo[h]quinazolin-7-yl]amino]methyl]cyclopropanecarbonitrile], for which the pIC50 in assay [1] was 6.00 to 7.00. The GI50 in assay [2] and in assay [3] was 100 to 2000 nM each time.

Regarding `CCN(C)c1c(O[C@H]2CC[C@H](N)CC2)ccc2c1CC(C)(C)c1c(N)ncnc1-2` [Example 67, 8-(trans-4-aminocyclohexoxy)-N7-ethyl-N7,5,5-trimethyl-6H-benzo[h]quinazoline-4,7-diamine], the pIC50 in assay [1] was more than 7.52. In addition, the GI50 in assay [2] and in assay [3] was less than 100 nM each time.

For the molecule `COCCCc1c(OC)ccc2c1CC(C)(C)c1c(N)ncnc1-2` [Example 61, 8-methoxy-7-(3-methoxypropyl)-5,5-dimethyl-6H-benzo[h]quinazolin-4-amine], in assay [1], the pIC50 was 6.00 to 7.00. For the same molecule, the GI50 in assay [2] and in assay [3] was 100 to 2000 nM in each case.

For `CC(=O)NCCN(C)c1c(O[C@H]2CC[C@H](N)CC2)ccc2c1CC(C)(C)c1c(N)ncnc1-2` [Example 38, N-[2-[[4-amino-8-(trans-4-aminocyclohexoxy)-5,5-dimethyl-6H-benzo[h]quinazolin-7-yl]-methyl-amino]ethyl]acetamide], in assay [1], the pIC50 was 7.00 to 7.52. For the same molecule, the GI50 is more than 2000 nM in assay [2] and 100 to 2000 nM in assay [3].

Regarding `CN(Cc1cccnc1)c1c(O[C@H]2CC[C@H](N)CC2)ccc2c1CC(C)(C)c1c(N)ncnc1-2` [Example 107, 8-(trans-4-aminocyclohexoxy)-N7,5,5-trimethyl-N7-(3-pyridylmethyl)-6H-benzo[h]quinazoline-4,7-diamine], in assay [1], the pIC50 was 6.00 to 7.00. Moreover, the 50% growth inhibitory concentration (GI50) in assay [2] and in assay [3] was 100 to 2000 nM each time.

With `CCCOc1c(O[C@H]2CC[C@H](N)CC2)ccc2c1CC(C)(C)c1c(N)ncnc1-2` [Example 19, 8-(trans-4-aminocyclohexoxy)-5,5-dimethyl-7-propoxy-6H-benzo[h]quinazolin-4-amine], the pIC50 in assay [1] is 7.00 to 7.52. In addition, the concentration for 50% growth inhibition (GI50) in assay [2] and in assay [3] was 100 to 2000 nM throughout.

Take `CC1(C)Cc2c(ccc(O[C@H]3CC[C@H](N)CC3)c2N2CCOCC2)-c2ncnc(N)c21` [Example 10, 8-(trans-4-aminocyclohexoxy)-5,5-dimethyl-7-morpholino-6H-benzo[h]quinazolin-4-amine]: in assay [1], the negative-log IC50 (pIC50) is 7.00 to 7.52. Moreover, the GI50 in assay [2] and in assay [3] was 100 to 2000 nM in each case.

For `COc1ccc2c(c1N1CCC(C#N)C1)CC(C)(C)c1c(N)ncnc1-2` (stereo not drawn) [Example 55, 1-(4-amino-8-methoxy-5,5-dimethyl-6H-benzo[h]quinazolin-7-yl)pyrrolidine-3-carbonitrile], the negative-log IC50 (pIC50) in assay [1] is 7.00 to 7.52. The GI50 in assay [2] and in assay [3] was less than 100 nM each time.

These data come from US20260159486A1, “BENZO[H]QUINAZOLINE-4-AMINE DERIVATIVES FOR THE TREATMENT OF CANCER” (Redona Therapeutics, Inc., priority 2021, published 2026).
